Test results as given in patent US9616062B2, “Cyclin dependent kinase inhibitors and methods of use” (priority 2009, dated 2017).

Key:
[1] = system: renal cell proliferation in female FVB wt mice; experiment: EdU incorporation into whole kidney of cisplatin-treated mice (flow cytometry); format: in vivo, mouse
Method: FIG. 6: CDK4/6 inhibition blocks EdU incorporation into whole kidney in mice treated with cisplatin. […] EdU ([…]) was given IP every 24 hours prior to sacrifice. Kidneys were collected and single cell isolates were prepared and stained for EdU incorporation. Proliferation was assessed by flow cytometry. Data represents % of EdU staining in untreated, cisplatin-treated and cisplatin/PD0332991 treated cells.
[…] Proliferation was assessed by using BrdU (1 mg IP injection) every 6 hours for 24 hours prior to sacrifice or […] (0.1 mg IP) every 24 hours for 3 days prior to sacrifice.
Kidneys were harvested from mice and single cells were isolated using a gentleMACS™ tissue dissociator (Miltinyi Biotec, Bergisch Gladbach, Germany). Briefly, kidneys were cut into small pieces and placed in 10 ml collagenase (1 mg/ml) in a gentleMACS™ C tube (Miltinyi Biotec, Bergisch Gladbach, Germany). Tissue was dissociated following the manufacturer's recommendations (Miltinyi Biotec, Bergisch Gladbach, Germany). Cells were then incubated for 5 minutes in ACK buffer to lyse red blood cells, filtered and pelleted. Cells were resuspended in 4% paraformaldehyde and stored overnight at 4° C. For quantification of EdU incorporation, the cells were fixed, permeabilized, and stained with an APC EdU Flow Kit according to the manufacturer's instruction (Invitrogen Corporation, Carlsbad, Calif., United States of America). Flow cytometric analysis was performed using a CyAn ADP (Dako, Glostrup, Denmark). For each sample, a minimum of 500,000 cells was analyzed and the data were analyzed using FlowJo software (Tree Star, Inc., Ashland, Oreg., United States of America).
The kidney is relatively quiescent until challenged by a renal insult. Therefore, to determine whether renal cell proliferation was dependent on CDK4/6 activity in vivo, renal cell proliferation was stimulated by treating female FVB wt mice with cisplatin, a known nephrotoxic chemotherapeutic agent. At time 0 hr, mice were started on chow delivering PD0332991 100 mg/kg per day or standard chow with no drug. […]

[2] = system: mice treated with cisplatin; format: in vivo, mouse; conditions: single dose PD0332991 150 mg/kg oral gavage with cisplatin 15 mg/kg IP; 72 hours post treatment
Method: FIG. 7: CDK4/6 inhibition protects kidney function in mice treated with cisplatin. Cohorts of mice were treated with cisplatin (10 mg/kg IP) alone (squares), PD0332991 (150 mg/kg PO) alone (diamonds) or immediately prior to cisplatin (10 mg/kg) (triangles). Kidney function was measured at day 7 by quantification of blood urea nitrogen (BUN) in mg/dL and serum creatinine (Serum Cr) in mg/dL. Data represents the mean of 6 animals per cohort +/−standard error of the mean.
To determine if CDK4/6 inhibition around the time of DNA damage would protect renal function, mice were treated with cisplatin, a known causative agent of renal tubular damage in humans. Mice were treated with PD0332991 150 mg/kg or vehicle control by oral gavage and then received a single dose of cisplatin 15 mg/kg by IP injection. 72 hours post treatment mice were euthanized and blood was collected by cardiac puncture for BUN (blood urea nitrogen) and serum creatinine (SrCr) analysis. Serum BUN and SrCr are common markers of renal function and serum levels quickly elevated when kidney function has been acutely compromised.

[3] = system: primary human renal proximal tubule epithelial cells; experiment: Protection from etoposide-induced cell death, CellTiter-Glo on day 7; format: cell-based; conditions: 16 h pretreatment, 2.5 μM etoposide 8 h, 7 days recovery
Method: FIG. 5: CDK4/6 inhibition protects primary human renal proximal tubule epithelial cells from etoposide-induced cell death. PD0332991 inhibits chemotherapy-induced cytotoxicity in a cdk4/6 dependent manner. Primary human renal proximal tubule epithelial cells were incubated with 30 nM or 100 nM PD0332991 for 16 hours. Etoposide (Etop, 2.5 μM) was added for 8 hours. Following incubation, the media was replaced with fresh media and the cells were incubated for an additional 7 days. On day 7, cell proliferation was assessed using CellTiter-Glo® (Promega, Madison, Wis., United States of America). Error bars show +/−standard deviation.
Primary normal human renal proximal epithelial cells (American Type Culture Collection (ATCC), Manassas, Va., United States of America) were cultured in renal epithelial cell basal media supplemented with renal epithelial cell growth kit according to the manufacturer's recommendations. […] For the γH2AX assay, cells were fixed, permeabilized, and stained with anti-γH2AX as per γH2AX Flow Kit (Millipore, Billerica, Mass., United States of America). γH2AX levels were assessed by flow cytometry. Cell proliferation was assessed by seeding 1×10^3 cells per well in a 96-well tissue culture plate in 100 μL of growth medium. […] 100 μL of TOXILIGHT™ reagent is added and incubated for 5 minutes and read in a luminometer at 1 second/well. […]

CC(=O)c1c(C)c2cnc(Nc3ccc(N4CCNCC4)cn3)nc2n(C2CCCC2)c1=O [PD0332991, 6-acetyl-8-cyclopentyl-5-methyl-2-(5-piperazin-1-yl-pyridin-2-ylamino)-8H-pyrido-[2,3-d]-pyrimidin-7-one]
reduction in cell proliferation ([1]; cisplatin and PD0332991 vs cisplatin and vehicle control): 88% | cells labeled with EdU ([1]; kidney single cell suspension, 72 h, cisplatin 15 mg/kg IP, PD0332991 100 mg/kg per day in chow or no drug): approximately 2% | protection of renal function (BUN and SrCr) [2]: abrogate the cisplatin-induced nephrotoxicity | protection from etoposide-induced cell death [3]: protection from etoposide induced cell death
